Experimental data as given in PubChem BioAssay AID2060342 (Molecular Pharmacology Branch, DTP, NCI, 2025).
Where “and” joins values, the source holds several entries; their conditions need not be identical. Identical values can stand only once. One block for each compound: values may come before it.

Test system: 171881-019-R-J1-PDC multicell spheroid viability
Test: Anticancer human tumor 171881-019-R-J1-PDC patient-derived invasive breast carcinoma cell line growth inhibition [IpAb]
Settings: for viability, T/C: stronger effect = lower value
Excerpt: Combinatorial screen of targeted agents with ipatasertib and abemaciclib in multi-cell type tumor spheroids
A high-throughput screen of multi-cell type tumor spheroids was designed to identify active combinations of targeted small molecules and ipatasertib or abemaciclib. Complex spheroids include a stromal component modeled by human endothelial cells (HUVEC) and fibroblasts modeled by human mesenchymal stem cells (MSCs). The concentration ranges selected for each drug and investigational agent were based upon clinically achievable concentrations if the clinical Cmax of the agent was known.
Compounds. The drugs and investigational agents: ipatasertib (NSC767898), abemaciclib(NSC768073), selumetinib (NSC741078), trametinib (758246), adavosertib (NSC754352), everolimus (NSC733504), sapanisertib (NSC764658), vemurafenib (NSC761431), venetoclax (NSC766270), copanlisib (NSC809693), apelisib (NSC765974), palbociblib (NSC758247), vemurafenib (NSC761431), dabrafenib (NSC764134), ravoxertinib (NSC781343), BMS-387032 (NSC767048), sotorasib (NSC818433), talazoparib (NSC767125) and afursertib (NSC778305), were obtained from the National Cancer Institute (NCI) Developmental Therapeutics Program Chemical Repository. The FDA-approved anticancer drug set is available from the NCI Developmental Therapeutics Program. […] The stock solutions were prepared in dimethyl sulfoxide (DMSO, Sigma-Aldrich, St. Louis, MO, cat. D2650) at 800-fold the tested concentration and stored at -70 degrees C prior to their use. All drugs and investigational agents were tested over a range starting from a high concentration at or near the clinical Cmax and decreasing in half-log increments. If the clinical Cmax for an agent had not been determined, the highest concentration tested was 10 microM.
NCI60 Cell Culture. NCI60 cell lines were obtained from the NCI Developmental Therapeutics Program Tumor Repository. For each lot of cells, the Repository performed Applied Biosystems AmpFLSTR Identifiler testing with PCR amplification to confirm consistency with the published Identifier STR profile for each cell line. Cells were kept in continuous culture for no more than 20 passages. The optimal seeding densities for each of the cell lines at each time point assessed were determined prior to performing the concentration response studies. Briefly, the NCI60 human tumor lines were grown as monolayers in RPMI 1640 medium supplemented with 10% FBS and 2 mmol/L L-glutamine.
An additional 9 lines were from the NCI60 cell line panel including MDA-MB-231 breast carcinoma, MDA-MB-468 breast carcinoma, MCF7 breast carcinoma, Hs578T breast carcinoma, MALME-3M melanoma, SK-MEL-2 melanoma, SK-OV-3 ovarian carcinoma, DU-145 prostate carcinoma, PC-3 prostate carcinoma, all cell lines along with major genetic alterations are listed on Table 2. Pooled donor human umbilical vein endothelial cells (HUVEC, Lonza, cat. CC-2519) and human mesenchymal stem cells (hMSC, Lonza, cat. PT-2501) were purchased from Lonza (Walkersville, MD).
PDMR cell lines were grown in complete medium (DC medium): Dulbecco's modified Eagle's medium (DMEM)/F12 supplemented with 5% fetal bovine serum (FBS), 2 mM L-glutamine, 100 U/mL penicillin and 100 µg/ml streptomycin, 0.4 µg/ml hydrocortisone, 10 ng/ml epidermal growth factor (EGF) recombinant human protein, 24 µg/mL adenine, and 0.1 mg/mL primocin. During culture from frozen stock vials, PDMR cells were cultured in the same medium containing 10 µM Y-27632 (see Table 3). The PDCs were cultured in complete DMEM/F12 media without 10 microM Y-27632 dihydrochloride for at least two passages prior to the screen. The pooled donor HUVEC and hMSC were cultured in endothelial cell growth medium 2 (PromoCell, Heidelberg, Germany, cat. C-22011) and mesenchymal stem cell growth medium 2 (PromoCell, cat. C-28009), respectively. For all experiments, HUVEC and hMSC were used at passages </=5.
[…]

[1] = compound alone, run of 05/18/2021
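Further: spheroids exposed to the agents for seven days before readout.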

IC50 (curve of compound): 768 nM and 786 nM
SMILES: C=CCn1c(=O)c2cnc(Nc3ccc(N4CCN(C)CC4)cc3)nc2n1-c1cccc(C(C)(C)O)n1
viability, T/C (compound 0.0316 µM): 89.9% and 111%
viability, T/C (compound 0.1 µM): 106% and 111%
viability, T/C (compound 0.316 µM): 104% and 133%
viability, T/C (compound 1 µM): 35.1% and 43.7%
viability, T/C (compound 3.16 µM): 28.2% and 27.2%
viability, T/C (compound 10 µM): 27.9% and 24.9%

IC50 (curve of compound): > 300 nM
SMILES: CC(=O)c1c(C)c2cnc(Nc3ccc(N4CCNCC4)cn3)nc2n(C2CCCC2)c1=O
viability, T/C (compound 0.000949 µM): 103% and 97.8%
viability, T/C (compound 0.003 µM): 92.6% and 92.2%
viability, T/C (compound 0.00949 µM): 102% and 103%
viability, T/C (compound 0.03 µM): 99.4% and 94%
viability, T/C (compound 0.0949 µM): 105% and 96.1%
viability, T/C (compound 0.3 µM): 115% and 105%

IC50 (curve of compound): 6280 nM and 5550 nM
SMILES: CC1(C)CCC(CN2CCN(c3ccc(C(=O)NS(=O)(=O)c4ccc(NCC5CCOCC5)c([N+](=O)[O-])c4)c(Oc4cnc5[nH]ccc5c4)c3)CC2)=C(c2ccc(Cl)cc2)C1
viability, T/C (compound 0.0316 µM): 107% and 93.6%
viability, T/C (compound 0.1 µM): 102% and 84.1%
viability, T/C (compound 0.316 µM): 93.8% and 78.3%
viability, T/C (compound 1 µM): 92.5% and 66.3%
viability, T/C (compound 3.16 µM): 89.8% and 87.8%
viability, T/C (compound 10 µM): 23.9% and 16.5%

IC50 (curve of compound): > 10000 nM
SMILES: CCCS(=O)(=O)Nc1ccc(F)c(C(=O)c2c[nH]c3ncc(-c4ccc(Cl)cc4)cc23)c1F
viability, T/C (compound 0.0316 µM): 111% and 90.2%
viability, T/C (compound 0.1 µM): 95.2% and 83%
viability, T/C (compound 0.316 µM): 86.9% and 93.1%
viability, T/C (compound 1 µM): 90.1% and 80.4%
viability, T/C (compound 3.16 µM): 78.3% and 72.6%
viability, T/C (compound 10 µM): 76.2% and 87.7%

IC50 [1]: > 1000 nM
SMILES: CCN1CCN(Cc2ccc(Nc3ncc(F)c(-c4cc(F)c5nc(C)n(C(C)C)c5c4)n3)nc2)CC1
viability, T/C (compound 0.01 µM): 91.6% [middle of 13 runs]
viability, T/C (compound 0.0316 µM): 105% [middle of 13 runs]
viability, T/C (compound 0.1 µM): 116% [middle of 13 runs]
viability, T/C (compound 1 µM): 149% [middle of 13 runs]

IC50 (curve of compound): 14.6 nM and 20.2 nM
SMILES: COc1c(OCCCN2CCOCC2)ccc2c3n(c(=NC(=O)c4cnc(N)nc4)nc12)CCN3
viability, T/C (compound 0.00316 µM): 109% and 115%
viability, T/C (compound 0.01 µM): 65.8% and 77.7%
viability, T/C (compound 0.0316 µM): 17.4% and 33.4%
viability, T/C (compound 0.1 µM): 4.32% and 7.03%
viability, T/C (compound 0.316 µM): 1% and 1.49%
viability, T/C (compound 1 µM): 1.51% and 1.79%

The remaining lines, values behind:

SMILES: C=CC(=O)N1CCN(c2nc(=O)n(-c3c(C)ccnc3C(C)C)c3nc(-c4c(O)cccc4F)c(F)cc23)C(C)C1 (stereo not given)
viability, T/C (compound 0.0316 µM): 98.7% and 101%
viability, T/C (compound 0.1 µM): 92.3% and 95.8%
viability, T/C (compound 0.316 µM): 99% and 106%
viability, T/C (compound 1 µM): 94.1% and 95.3%
viability, T/C (compound 3.16 µM): 93.6% and 84.7%
viability, T/C (compound 10 µM): 35.2% and 31.8%
IC50 (curve of compound): 7470 nM and 6740 nM

SMILES: CC(C)(C)c1cnc(CSc2cnc(NC(=O)C3CCNCC3)s2)o1
viability, T/C (compound 0.00949 µM): 96% and 96.9%
viability, T/C (compound 0.03 µM): 109% and 96.1%
viability, T/C (compound 0.0949 µM): 116% and 119%
viability, T/C (compound 0.3 µM): 20.1% and 3.63%
viability, T/C (compound 0.949 µM): 0.52% and 0.41%
viability, T/C (compound 3 µM): 0.65% and 0.81%
IC50 (curve of compound): 202 nM and 176 nM

SMILES: CC(C)NCC(C(=O)N1CCN(c2ncnc3c2C(C)CC3O)CC1)c1ccc(Cl)cc1 (stereo not given)
viability, T/C (compound 1 µM): 27.9% [middle of 13 runs]
viability, T/C (compound 3.16 µM): 11.2% [middle of 13 runs]
viability, T/C (compound 10 µM): 6.7% [middle of 12 runs]
IC50 [1]: 618 nM [middle of 13 runs]

SMILES: CC(C)n1nc(-c2ccc3oc(N)nc3c2)c2c(N)ncnc21
viability, T/C (compound 0.000316 µM): 109% and 103%
viability, T/C (compound 0.001 µM): 114% and 106%
viability, T/C (compound 0.00316 µM): 82.1% and 64%
viability, T/C (compound 0.01 µM): 28.1% and 18.6%
viability, T/C (compound 0.0316 µM): 4.54% and 3.87%
viability, T/C (compound 0.1 µM): 2.72% and 2.73%
IC50 (curve of compound): 6.27 nM and 4.58 nM
